The target of series [1] is SERT (Homo sapiens, UniProt P31645). The note with it: known values, background art; read-out: binding affinity (Ki) to SERT; cited from earlier work.
The target of series [2] is serotonin transporter (SERT) (Rattus norvegicus, UniProt P31652). Put plainly: Radioligand binding assay with [3H]citalopram on synaptic membrane. The note with it: for affinity (Ki value) compared with Fluoxetine: comparison in words on Table 3; for activity / binding affinity relative to 6-nitro-2-piperazin-1-yl-quinoline: ratio of Ki values of Table 3.
Sequence of serotonin transporter (SERT) (P31652 whole entry): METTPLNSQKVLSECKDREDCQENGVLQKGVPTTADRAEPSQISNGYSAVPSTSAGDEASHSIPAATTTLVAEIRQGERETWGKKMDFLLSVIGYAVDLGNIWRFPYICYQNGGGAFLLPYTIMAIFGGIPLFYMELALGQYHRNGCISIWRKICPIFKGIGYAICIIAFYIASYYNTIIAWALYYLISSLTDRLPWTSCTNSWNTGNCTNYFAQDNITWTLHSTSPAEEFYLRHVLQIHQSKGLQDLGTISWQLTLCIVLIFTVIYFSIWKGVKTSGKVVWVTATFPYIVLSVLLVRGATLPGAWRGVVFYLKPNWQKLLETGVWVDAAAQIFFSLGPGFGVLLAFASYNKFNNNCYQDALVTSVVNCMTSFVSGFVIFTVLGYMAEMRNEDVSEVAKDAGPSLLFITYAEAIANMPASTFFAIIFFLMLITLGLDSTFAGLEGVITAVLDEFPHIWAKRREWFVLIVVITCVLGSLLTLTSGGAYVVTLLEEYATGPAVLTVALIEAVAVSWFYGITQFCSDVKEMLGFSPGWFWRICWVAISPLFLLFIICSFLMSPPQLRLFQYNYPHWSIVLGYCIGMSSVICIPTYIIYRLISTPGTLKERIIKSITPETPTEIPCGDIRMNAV
Experimental: After male SD Rats (250˜350 g) were decapitate by using quillotine, the whole brains were removed. The cerebral cortex were carefully cut to slices and weighed. 0.32 M sucrose which is 10 times of sucrose was added to the slices, and then homogenized twice for 15 seconds using Polytron. After being centrifuged at 4° C. for 10 minutes in 1,000×g, the thus obtained supernatant was re-centrifuged at 20,000×g for 20 minutes and then discarded. The precipitate was isolated, re-suspended in deionized water, was provided with osmotic shock for 10 minutes, and then centrifuged at 80,000×g for 20 minutes. The thus obtained precipitate was suspended in 50 ml of triacetate buffer, re-centrifuged at 48,000×g, and then transferred to a refrigerator. On the day of assay, the cells were thawed on ice, washed by centrifugation (48,000×g, 20 minutes).
The mixture was shaken at 25° C. for 60 minutes, incubated, filtered using a Brandel Cell Harvester through a GF/B Watman filter presoaked in 0.05 polyethylimine. The filters were then washed twice with 5 ml of ice-cold buffer, dried, added with 7 ml of ultima gold scintillation cocktail, and then shaken for 3˜4 hours.
Series [3] is described as follows: Acute toxicity in rats. The note with it: SD, rat, in vivo. It is filed as in vivo. As to the method: (§1) 6-week old SPF SD line rats were used in the tests for acute toxicity. 6-chloro-2-piperazin-1-yl-quinoline or 4-chloro-6-nitro-2-piperazin-1-yl-quinoline were suspended in 1 ml saline buffer solution and […] administered to anterior tibialis once to 6 rats per group at the dosage of 500 mg/kg. Death, clinical symptoms, and weight change in rats were observed, hematological tests and biochemical tests of blood performed, and any abnormal signs in the gastrointestinal organs of chest and abdomen checked with eyes during autopsy. […]

Series [4] deals with SPF SD line rats. Put plainly: Acute toxicity in rats. It is filed as in vivo. On the procedure: as §1
The subject of series [5] is depression-induced mice. Kind of series: Assay for anti-depression activity using a forced swimming test. It is filed as in vivo. The note with it: orally administered, 50 mg/kg (FIG. 1), p<0.003. As to the method: After 4-chloro-6-nitro-2-piperazin-1-yl-quinoline was dissolved in dimethylsulfoxide in a variety of concentrations and injected to depression-induced mice, the time of immobility was measured. The immobility time may be evaluated by measuring the effect against anti-depression. Because immobility means a helplessness of the mice, in this case, slow immobility should be understood to reduce depression.
4-chloro-6-nitro-2-piperazin-1-yl-quinoline was orally administered after 23 hours from the first treatment, subsequently, after 24 hours, the animals were placed in the cage to carry out the second treatment and the immobility time was measured for 5 minutes. The immobility caused by the second treatment was recorded while watching video tape. In order to make an objective observation, we made an average of the results of make than 3 people.

The test system of series [6] is ICR mice. Put plainly: Assay for anti-depression activity using a tail suspension test. It is filed as in vivo. Particulars: for anti-depression effect higher than that of control (immobility time): ICR mice, oral. As to the method: The inventors carried out the tail suspension test to evaluate an anti-depression activity of the present compound. ICR mice were divided into 5 groups made up of 8 subjects, and orally dosed with 4-chloro-6-nitro-2-piperazin-1-yl-quinoline dissolved in saline buffer solution in a variety of its concentration 60 minutes prior to the beginning of the experiment. The evaluation of the activity was estimated using administering group, negative, and positive group. After suspending the animal by the tail induced the immobility, the immobility time was measured 6 minutes watching a recorded tape for video. The final data was obtained an average value measured by 3 persons to accurate the data.

Where [7] appears, read: 1 nM [3H]citalopram, rat cerebral cortex synaptic membrane, 25° C., 60 minutes.

Read-outs that look alike come from different tables or passages of the source.

Sequence of SERT (P31645 whole entry, species assumed): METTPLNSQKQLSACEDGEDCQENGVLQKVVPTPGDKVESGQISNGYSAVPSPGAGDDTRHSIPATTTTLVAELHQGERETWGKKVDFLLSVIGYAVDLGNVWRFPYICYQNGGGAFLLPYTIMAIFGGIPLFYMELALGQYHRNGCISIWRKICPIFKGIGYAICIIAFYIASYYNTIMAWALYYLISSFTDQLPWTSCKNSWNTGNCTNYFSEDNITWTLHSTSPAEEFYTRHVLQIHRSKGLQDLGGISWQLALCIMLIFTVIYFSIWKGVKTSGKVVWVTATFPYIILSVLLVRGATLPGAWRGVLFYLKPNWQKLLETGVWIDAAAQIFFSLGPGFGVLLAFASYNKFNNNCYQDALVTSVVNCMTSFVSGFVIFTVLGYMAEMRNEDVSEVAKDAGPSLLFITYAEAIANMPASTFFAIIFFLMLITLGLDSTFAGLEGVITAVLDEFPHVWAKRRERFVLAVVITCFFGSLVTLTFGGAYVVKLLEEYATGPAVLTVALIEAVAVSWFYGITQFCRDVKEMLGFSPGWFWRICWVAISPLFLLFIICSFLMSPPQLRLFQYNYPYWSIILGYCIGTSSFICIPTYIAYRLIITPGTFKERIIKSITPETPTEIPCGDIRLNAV

Consider `O=[N+]([O-])c1ccc2nc(N3CCNCC3)ccc2c1` [6-nitro-2-piperazin-1-yl-quinoline, 6-nitro-2-(piperazin-1-yl)quinoline, reference compound], for which the Ki – broadly, a dissociation constant, usually derived from enzyme kinetics or from competition with a known ligand – in series [1] is 0.018 nM; in series [2] (setting [7]), 0.17 ± 0.03 nM.

Regarding `Cc1cc2cc([N+](=O)[O-])ccc2nc1N1CCNCC1` [Example 1, 3-methyl-6-nitro-2-(piperazin-1-yl)quinoline], in series [2], affinity was put at a Ki of 8.45 ± 0.62 nM.

For the molecule `CCc1cc2cc([N+](=O)[O-])ccc2nc1N1CCNCC1` [Example 2, 3-ethyl-6-nitro-2-(piperazin-1-yl)quinoline], in series [2], the Ki was found to be 0.36 ± 0.02 nM and the “affinity (Ki value) compared with Fluoxetine” value was “exceed that of Fluoxetine”.

For the molecule `CCCc1cc2cc([N+](=O)[O-])ccc2nc1N1CCNCC1` [Example 3, 6-nitro-2-(piperazin-1-yl)-3-propylquinoline], in series [2], the Ki was found to be 0.26 ± 0.01 nM and the “affinity (Ki value) compared with Fluoxetine” value was “exceed that of Fluoxetine”.

For the molecule `O=[N+]([O-])c1ccc2nc(N3CCNCC3)c(CCCCl)cc2c1` [Example 4, 3-(3-chloropropyl)-6-nitro-2-piperazin-1-yl-quinoline], in series [2], the Ki amounted to 1.08 ± 0.17 nM.

Take `O=[N+]([O-])c1ccc2nc(N3CCNCC3)c(CCCF)cc2c1` [Example 5, 3-(3-fluoropropyl)-6-nitro-2-piperazin-1-yl-quinoline]: in series [2] (setting [7]), the affinity, expressed as Ki, was 0.32 ± 0.01 nM. Also, the “affinity (Ki value) compared with Fluoxetine” value in series [2] is “exceed that of Fluoxetine”.

`Ic1ccc2nc(N3CCNCC3)ccc2c1` [Example 6, 6-iodo-2-piperazin-1-yl-quinoline] gave a Ki in series [2] (setting [7]) of 6.6 ± 0.52 nM.

Molecule `Brc1ccc2nc(N3CCNCC3)ccc2c1` [Example 7, 6-bromo-2-piperazin-1-yl-quinoline] displayed a Ki in series [2] (setting [7]) of 0.91 ± 0.07 nM.

With `Clc1ccc2nc(N3CCNCC3)ccc2c1` [Example 8, 6-chloro-2-piperazin-1-yl-quinoline], the LD50 (as a rule, the dose expected to kill half of the subjects tested) in series [3] (rats, single administration of 500 mg/kg, read-out: estimated LD50) was more than 500 mg/kg. In series [4] (rats, single administration of 500 mg/kg, 6 rats per group), the “acute toxicity observations (death, clinical symptoms, weight change)” value was “did not cause any specific clinical symptoms, weight change, or death”. Moreover, the Ki in series [2] (setting [7]) was found to be 1.68 ± 0.13 nM.

Regarding `O=[N+]([O-])c1ccc2nc(N3CCNCC3)c(Br)cc2c1` [Example 9, 3-bromo-6-nitro-2-(piperazin-1-yl)quinoline], the affinity in series [2] (setting [7]) corresponds to a Ki of 12.6 ± 1.14 nM.

As for `O=[N+]([O-])c1ccc2nc(N3CCNCC3)cc(Cl)c2c1` [Example 10, 4-chloro-6-nitro-2-(piperazin-1-yl)quinoline], the LD50 in series [3] (500 mg/kg) is more than 500 mg/kg. In addition, the “acute toxicity observations (death, clinical symptoms, weight change)” value in series [4] (rat, in vivo, 500 mg/kg) was “did not cause any specific clinical symptoms, weight change, or death”. Moreover, in series [5], the “anti-depression effect higher than that of the control (immobility time)” value is listed as 30%. The same molecule came in with an inhibition constant (Ki) in series [2] of 0.017 nM. The “activity / binding affinity relative to 6-nitro-2-piperazin-1-yl-quinoline” value in series [2] was 10 times; in series [2] (listed as 4-chloro-6-nitro-2-piperazin-1-yl-quinoline) it was “over ten times”. Further, the “effect higher than that of the control (immobility time)” value in series [6] (FIG. 2B, 1 mg/kg or 10 mg/kg, anova p<0.005) was “about 65%”. The “anti-depression effect higher than that of control (immobility time)” value in series [6] (5 mg/kg) came to 56%; in series [6] (50 mg/kg), 60%. Also, in series [6] (Mus musculus, expected from evenness of effect from 1 to 50 mg/kg), the ED50 (commonly the dose that gives a 50% effect, or the effect in half of the subjects) was less than 1 mg/kg.

In turn, `C=Cc1cc(N2CCNCC2)nc2ccc([N+](=O)[O-])cc12` [Example 13, 6-nitro-2-(piperazin-1-yl)-4-vinylquinoline] gave an inhibitory constant (Ki) in series [2] of 1.42 nM.

Molecule `O=[N+]([O-])c1ccc2nc(N3CCNCC3)cc(-c3ccco3)c2c1` [Example 14, 4-(2-furanyl)-6-nitro-2-(piperazin-1-yl)quinoline] returned a Ki in series [2] of 6.4 nM.

`CC1CN(c2ccc3cc([N+](=O)[O-])ccc3n2)CCN1` (stereo not shown) [Example 15, 2-(3-methylpiperazin-1-yl)-6-nitroquinoline] came in with a Ki in series [2] (setting [7]) of 22.2 ± 1.7 nM.

The molecule `CNCCN(C)c1ccc2cc([N+](=O)[O-])ccc2n1` [Example 16, 2-(N-methyl-N-(2-N′-methylamino)ethyl)amino-6-nitroquinoline] showed a Ki in series [2] (setting [7]) of 8.43 ± 0.45 nM.

In series [2] (setting [7]), `O=[N+]([O-])c1ccc2nc(N3CCCNCC3)ccc2c1` [Example 17, 2-[1,4]diazepin-1-yl-6-nitroquinoline] showed a Ki of 1.9 ± 0.15 nM.

The values are drawn from patent publication US20050165006A1, “Quinoline derivatives, their preparation and pharmaceutical compositions comprising the same” (priority 2002, published 2005).
